Experimental data: patent publication US12692238B2, “Substituted pyridazinone herbicides” (FMC CORPORATION, priority 2020, dated 2026)

What was measured:
Assay type in all cases: in vivo
[1] = system: ragweed (common ragweed, Ambrosia artemisiifolia); assay: Test A preemergence, ragweed; conditions: 0 to 100 scale, 10 days
Description: (§1) Seeds of plant species selected from barnyardgrass (Echinochloa crus-galli), blackgrass (Alopecurus myosuroides), corn (Zea mays), foxtail, giant (giant foxtail, Setaria faberi), foxtail, green (green foxtail, Setaria viridis), goosegrass (Eleusine indica), kochia (Bassia scoparia), oat, wild (wild oat, Avena fatua), palmer amaranth (pigweed, palmer, Amaranthus palmeri), redroot pigweed (Amaranthus retroflexus), ragweed (common ragweed, Ambrosia artemisiifolia), ryegrass, Italian (Italian ryegrass, Lolium multiflorum), and soybean (Glycine max) were planted into a blend of loam soil and sand and treated preemergence with a directed soil spray using test chemicals formulated in a non-phytotoxic solvent mixture which included a surfactant.
(§2) At the same time, plants selected from these crop and weed species and also wheat (Triticum aestivum), galium (catchweed bedstraw, Galium aparine) and horseweed (Erigeron canadensis) were planted in pots containing the same blend of loam soil and sand and treated with postemergence applications of test chemicals formulated in the same manner. Plants ranged in height from 2 to 10 cm and were in the one- to two-leaf stage for the postemergence treatment. Treated plants and untreated controls were maintained in a greenhouse for 10 days, after which time all treated plants were compared to untreated controls and visually evaluated for injury. Plant response ratings, summarized in Table A, are based on a 0 to 100 scale where 0 is no effect and 100 is complete control. A dash (-) response means no test result.

[2] = system: kochia (Bassia scoparia); assay: Test A preemergence, kochia; conditions: 0 to 100 scale, 10 days
Description: as §1, §2

[3] = system: ryegrass, Italian (Italian ryegrass, Lolium multiflorum); assay: Test A postemergence, ryegrass, Italian; conditions: 10 days
Description: as §1, §2

[4] = system: wheat (Triticum aestivum); assay: Test A postemergence, wheat; conditions: 10 days
Description: as §1, §2

[5] = system: ducksalad (Heteranthera limosa); assay: Test B flooded paddy test, ducksalad; conditions: 250 g ai/ha, Flood; visually evaluated after 10 to 14 days
Experimental: (§3) Plant species in the flooded paddy test selected from barnyardgrass (Echinochloa crus-galli), ducksalad (Heteranthera limosa), rice (Oryza sativa), and sedge, umbrella (small-flower umbrella sedge, Cyperus difformis) were grown to the 2-leaf stage for testing. At time of treatment, test pots were flooded to 3 cm above the soil surface, treated by application of test compounds directly to the paddy water, and then maintained at that water depth for the duration of the test. Treated plants and controls were maintained in a greenhouse for 10 to 14 days, after which time all species were compared to controls and visually evaluated. Plant response ratings, summarized in Table B, are based on a scale of 0 to 100 where 0 is no effect and 100 is complete control. A dash (-) response means no test result.

[6] = system: galium (catchweed bedstraw, Galium aparine); assay: Test A postemergence, galium; conditions: 10 days
Description: as §1, §2

[7] = system: barnyardgrass (Echinochloa crus-galli); assay: Test A preemergence, barnyardgrass; conditions: 10 days
Description: as §1, §2

[8] = system: foxtail, giant (giant foxtail, Setaria faberi); assay: Test A preemergence, foxtail, giant; conditions: 0 to 100 scale, 10 days
Description: as §1, §2

[9] = system: redroot pigweed (Amaranthus retroflexus); assay: Test A preemergence, redroot pigweed; conditions: 0 to 100 scale, 10 days
Description: as §1, §2

[10] = system: kochia (Bassia scoparia); assay: Test A postemergence, kochia; conditions: 10 days
Description: as §1, §2

[11] = system: sedge, umbrella (small-flower umbrella sedge, Cyperus difformis); assay: Test B flooded paddy test, sedge, umbrella; conditions: 250 g ai/ha, Flood; visually evaluated after 10 to 14 days
Experimental: as §3

[12] = system: barnyardgrass (Echinochloa crus-galli); assay: Test A postemergence, barnyardgrass; conditions: 10 days
Description: as §1, §2

[13] = system: blackgrass (Alopecurus myosuroides); assay: Test A postemergence, blackgrass; conditions: 10 days
Description: as §1, §2

[14] = system: barnyardgrass (Echinochloa crus-galli); assay: Test B flooded paddy test, barnyardgrass; conditions: 250 g ai/ha, Flood; visually evaluated after 10 to 14 days
Experimental: as §3

[15] = system: ragweed (common ragweed, Ambrosia artemisiifolia); assay: Test A postemergence, ragweed; conditions: 10 days
Description: as §1, §2

[16] = system: ryegrass, Italian (Italian ryegrass, Lolium multiflorum); assay: Test A preemergence, ryegrass, Italian; conditions: 0 to 100 scale, 10 days
Description: as §1, §2

[17] = system: corn (Zea mays); assay: Test A postemergence, corn; conditions: 10 days
Description: as §1, §2

[18] = system: foxtail, giant (giant foxtail, Setaria faberi); assay: Test A postemergence, foxtail, giant; conditions: 10 days
Description: as §1, §2

[19] = system: rice (Oryza sativa); assay: Test B flooded paddy test, rice; conditions: 250 g ai/ha, Flood; visually evaluated after 10 to 14 days
Experimental: as §3

[20] = system: redroot pigweed (Amaranthus retroflexus); assay: Test A postemergence, redroot pigweed; conditions: 10 days
Description: as §1, §2

[21] = 31 g ai/ha, postemergence, 0 to 100 scale (0 no effect, 100 complete control)
[22] = Postemergence, 125 g ai/ha, 0 to 100 scale
[23] = 125 g ai/ha, 0 to 100 scale (0 no effect, 100 complete control)
[24] = Postemergence, 31 g ai/ha, 0 to 100 scale

Compound	Plant response rating, Ragweed ([1]; 31 g ai/ha)	Plant response rating, Ragweed ([1]; 125 g ai/ha)	Plant response rating, Kochia ([2]; 31 g ai/ha)	Plant response rating, Kochia ([2]; 125 g ai/ha)	Plant response rating, Ryegrass, Italian [3, 21]	Plant response rating, Ryegrass, Italian [3, 22]	Plant response rating, Wheat [4, 21]	Plant response rating, Wheat [4, 22]	Plant response rating, Ducksalad (0 to 100 scale where 0 is no effect and 100 is complete control) [5]	Plant response rating, Galium [6, 21]	Plant response rating, Galium [6, 22]	Plant response rating, Barnyardgrass ([7]; 31 g ai/ha, 0 to 100 scale)	Plant response rating, Barnyardgrass [7, 23]	Plant response rating, Foxtail, Giant ([8]; 31 g ai/ha)	Plant response rating, Foxtail, Giant ([8]; 125 g ai/ha)	Plant response rating, Pigweed, Redroot ([9]; 31 g ai/ha)	Plant response rating, Pigweed, Redroot ([9]; 125 g ai/ha)	Plant response rating, Kochia [10, 21]	Plant response rating, Kochia [10, 22]	Plant response rating, Sedge, Umbrella (0 to 100 scale where 0 is no effect and 100 is complete control) [11]	also measured
CC(=O)OCOc1c(C)nn(C)c(=O)c1-c1c2ccccc2c(Cl)c2ccccc12 [Compound 12]	60	80	0	100	80	100	0	10	70	100	100	20	90	10	80	100	100	40	80	85	Plant response rating, Barnyardgrass [12, 24]: 10; Plant response rating, Barnyardgrass [12, 22]: 60; Plant response rating, Blackgrass [13, 24]: 0; Plant response rating, Blackgrass [13, 22]: 30; Plant response rating, Barnyardgrass (0 to 100 scale where 0 is no effect and 100 is complete control) [14]: 0; Plant response rating, Ragweed [15, 21]: 90; Plant response rating, Ragweed [15, 22]: 100; Plant response rating, Ryegrass, Italian ([16]; 31 g ai/ha): 70; Plant response rating, Ryegrass, Italian ([16]; 125 g ai/ha): 90; Plant response rating, Corn [17, 24]: 0; Plant response rating, Corn [17, 22]: 10; Plant response rating, Foxtail, Giant [18, 24]: 20; Plant response rating, Foxtail, Giant [18, 22]: 80; Plant response rating, Rice (0 to 100 scale where 0 is no effect and 100 is complete control) [19]: 0; Plant response rating, Pigweed, Redroot [20, 21]: 100; Plant response rating, Pigweed, Redroot [20, 22]: 100
CC(=O)OCOc1c(C)nn(C)c(=O)c1-c1c2cc(F)ccc2cc2c(C)cc(C)cc12 [Compound 27]	50	100	0	80	100	100	0	0	65	70	100	0	30	0	70	100	100	10	70	65	Plant response rating, Barnyardgrass [12, 21]: 20; Plant response rating, Barnyardgrass [12, 22]: 30; Plant response rating, Blackgrass [13, 21]: 0; Plant response rating, Blackgrass [13, 22]: 0; Plant response rating, Barnyardgrass (0 to 100 scale where 0 is no effect and 100 is complete control) [14]: 0; Plant response rating, Ragweed [15, 21]: 90; Plant response rating, Ragweed [15, 22]: 90; Plant response rating, Ryegrass, Italian ([16]; 31 g ai/ha): 10; Plant response rating, Ryegrass, Italian ([16]; 125 g ai/ha): 90; Plant response rating, Corn [17, 21]: 0; Plant response rating, Corn [17, 22]: 10; Plant response rating, Foxtail, Giant [18, 21]: 0; Plant response rating, Foxtail, Giant [18, 22]: 30; Plant response rating, Rice (0 to 100 scale where 0 is no effect and 100 is complete control) [19]: 15; Plant response rating, Pigweed, Redroot [20, 21]: 100; Plant response rating, Pigweed, Redroot [20, 22]: 100
